Results: patent US11779586B2, “Compounds comprising tricyclic heterocyclic compounds” (Convalife (Shanghai) Co. Limited, priority 2015, dated 2023)
Where two headings read alike, the source gives them in different places.

Experiments:
[1] = system: p110β/p110α; test: HTRF biochemical assay, class I PI3K isoforms (Reaction Biology Corp.): fold selectivity p110β/p110α; conditions: fold form selectivity
From the text: (§1) Fold form selectivity inhibition data against class I PI3K isoforms, as determined using a HTRF biochemical assay conducted at Reaction Biology Corp., is listed below.

[2] = system: p110β/p110γ; test: HTRF biochemical assay, class I PI3K isoforms (Reaction Biology Corp.): fold selectivity p110β/p110γ; conditions: fold form selectivity
From the text: as §1

[3] = system: p110δ/p110α; test: HTRF biochemical assay, class I PI3K isoforms (Reaction Biology Corp.): fold selectivity p110δ/p110α; conditions: fold form selectivity
[4] = system: p110δ/p110γ; test: HTRF biochemical assay, class I PI3K isoforms (Reaction Biology Corp.): fold selectivity p110δ/p110γ; conditions: fold form selectivity
[5] = Rodent pharmacokinetics: oral bioavailability and clearance, plasma PK; assay type: in vivo, mouse
Experimental: Formulation: 10% DMSO, 90% Saline Dosing: 10 mg/kg P.O. and 5 mg/kg I.V.
• Species=male mouse; • Strain=Balb/c; • 18 male mice were divided into two groups Group 1 (3 mg/kg; I.V.), Group 2 (10 mg/kg; P.O.) with each group comprising nine mice; • Blood samples (approximately 60 μL) were collected from retro orbital plexus under light isoflurane anesthesia such that the samples were obtained at pre-dose, 0.08, 0.25, 0.5, 1, 2, 4, 8 and 24 hr (I.V.) and pre-dose, 0.25, 0.5, 1, 2, 4, 6, 8 and 24 hr (P.O.); • The blood samples were collected from a set of three mice at each time point in labeled micro centrifuge tube containing K2EDTA as anticoagulant; • Plasma samples were separated by centrifugation of whole blood and stored below −70° C. until bioanalysis; • All samples were processed for analysis by protein precipitation using acetonitrile (ACN) and analyzed with fit for purpose LC/MS/MS method (LLOQ: 2.02 ng/mL); • Pharmacokinetic parameters were calculated using the non-compartmental analysis tool of Phoenix WinNonlin (Version 6.3). Formulation: Animals in Group 1 were administered intravenously with Example B solution formulation in 20% propylene glycol, 50% of PEG 400 and 30% of 20% βCD in water via tail vein at a dose of 3 mg/kg. Animals in Group 2 were administered with oral solution formulation of Example B in 20% propylene glycol, 50% of PEG 400 and 30% of 20% HPβCD in water at a dose of 10 mg/kg; Dosing: 10 mg/kg P.O. and 3 mg/kg I.V.
• Species=male mouse; • Strain=Balb/c; • 18 male mice were divided into two groups Group 1 (3 mg/kg; I.V.), Group 2 (10 mg/kg; P.O.) with each group comprising nine mice; • Blood samples (approximately 60 μL) were collected from retro orbital plexus under light isoflurane anesthesia such that the samples were obtained at pre-dose, 0.08, 0.25, 0.5, 1, 2, 4, 8 and 24 hr (I.V.) and pre-dose, 0.25, 0.5, 1, 2, 4, 6, 8 and 24 hr (P.O.); • The blood samples were collected from a set of three mice at each time point in labeled micro centrifuge tube containing K2EDTA as anticoagulant; • Plasma samples were separated by centrifugation of whole blood and stored below −70° C. until bioanalysis; • All samples were processed for analysis by protein precipitation using acetonitrile (ACN) and analyzed with fit for purpose LC/MS/MS method (LLOQ: 2.47 ng/mL); • Pharmacokinetic parameters were calculated using the non-compartmental analysis tool of Phoenix WinNonlin (Version 6.3). Formulation: Animals in Group 1 were administered intravenously with Example G solution formulation in 5% NMP, 5% solutol HS-15 in 90% HPβCD solution (20% HPβCD in RO water) at 3 mg/kg dose. Animals in Group 2 were administered orally with 10 mg/kg solution formulation of Example G in 5% NMP, 5% solutol HS-15 in 90% HPβCD solution (20% HPβCD in RO water) Dosing: 10 mg/kg P.O. and 3 mg/kg I.V.
• Species=male mouse; • Strain=CD1; • n=3 male mice per time point per route; • Terminal blood sampling at 8 time points (5 min, 10 min, 0.5 hr, 1 hr, 3 hr, 6 hr, 8 hr and, 24 hr); • Collection of plasma, bio-analysis and report of pharmacokinetic parameters. Formulation: 10% DMSO, 90% Saline Dosing: 10 mg/kg P.O. and 5 mg/kg I.V.

[6] = in vivo, iv, male mouse, I.V. (5 mg/kg CD1: Example A, comparative; 3 mg/kg Balb/c: Examples B, G), mesylate salt, read-out: Clearance

| Structure (SMILES) | Fold IC50 p110β/p110α [1] | Fold IC50 p110β/p110γ [2] | Fold IC50 p110δ/p110α [3] | Fold IC50 p110δ/p110γ [4] | F ([5]; male, CD1, mouse, in vivo) [%] | clearance ([5]; male, mouse, in vivo, iv) [mL/min/kg] | clearance [5, 6] [mL/min/kg] | F ([5]; male Balb/c mouse, PO 10 mg/kg vs IV 3 mg/kg, 20% propylene glycol, 50% PEG 400, 30% of 20% HPβCD in water, mesylate salt) [%] | clearance ([5]; male, mouse, in vivo, summary table, mice, mesylate salts, read-out: Clearance) [mL/min/kg] | F ([5]; male Balb/c mouse, PO 10 mg/kg vs IV 3 mg/kg, 5% NMP, 5% solutol HS-15 in 90% HPβCD solution, mesylate salt) [%] |
| --- | --- | --- | --- | --- | --- | --- | --- | --- | --- | --- |
| c1cc(-c2nc(N3CCOCC3)c3oc4ncc(CN5CC6CC[C@H](C5)O6)cc4c3n2)c2cc[nH]c2c1 (stereo in doubt) [Example C, 4-(1H-Indol-4-yl)-6-(morpholin-4-yl)-12-{8-oxa-3-azabicyclo[3.2.1]octan-3-ylmethyl}-8-oxa-3,5,10-triazatricyclo[7.4.0.0^2,7]trideca-1(13),2(7),3,5,9,11-hexaene] | * (* = ≥10× ≥ 50×) | ** (** = >50×) | ** (** = >50×) | ** (** = >50×) |  |  |  |  |  |  |
| c1cc(-c2nc(N3CCOCC3)c3oc4ncc(CN5C[C@@H]6C[C@H]5CO6)cc4c3n2)c2cc[nH]c2c1 [Example A, 4-(1H-Indol-4-yl)-6-(morpholin-4-yl)-12-[(1S,4S)-2-oxa-5-azabicyclo[2.2.1]heptan-5-ylmethyl]-8-oxa-3,5,10-triazatricyclo[7.4.0.0^2,7]trideca-1(13),2(7),3,5,9,11-hexaene] |  |  |  |  | 73.77 | 21 |  |  |  |  |
| c1cc(-c2nc(N3CCOCC3)c3oc4ncc(CN5CCC6(CC5)COC6)cc4c3n2)c2cc[nH]c2c1 [Example B, 4-(1H-Indol-4-yl)-6-(morpholin-4-yl)-12-{2-oxa-7-azaspiro[3.5]nonan-7-ylmethyl}-8-oxa-3,5,10-triazatricyclo[7.4.0.0^2,7]trideca-1(13),2(7),3,5,9,11-hexaene] | ** (** = >50×) | ** (** = >50×) | ** (** = >50×) | ** (** = >50×) |  |  | 33 | 74 | 33 |  |
| CN1CCC2(CCN(Cc3cnc4oc5c(N6CCOCC6)nc(-c6cccc7[nH]ccc67)nc5c4c3)CC2)C1 [Example D, 4-(1H-Indol-4-yl)-12-({2-methyl-2,8-diazaspiro[4.5]decan-8-yl}methyl)-6-(morpholin-4-yl)-8-oxa-3,5,10-triazatricyclo[7.4.0.0^2,7]trideca-1(13),2(7),3,5,9,11-hexaene] | ** (** = >50×) | ** (** = >50×) | ** (** = >50×) | ** (** = >50×) |  |  |  |  |  |  |
| CN1CCC2(CCN(Cc3cnc4oc5c(N6CCOCC6)nc(-c6cccc7[nH]ccc67)nc5c4c3)C2)C1 (stereo not drawn) [Example E, 4-(1H-Indol-4-yl)-12-({7-methyl-2,7-diazaspiro[4.4]nonan-2-yl}methyl)-6-(morpholin-4-yl)-8-oxa-3,5,10-triazatricyclo[7.4.0.0^2,7]trideca-1(13),2(7),3,5,9,11-hexaene] | ** (** = >50×) | ** (** = >50×) | ** (** = >50×) | ** (** = >50×) |  |  |  |  |  |  |
| c1cc(-c2nc(N3CCOCC3)c3oc4ncc(CN5CCC56COC6)cc4c3n2)c2cc[nH]c2c1 [Example G, 4-(1H-indol-4-yl)-6-(morpholin-4-yl)-12-{6-oxa-1-azaspiro[3.3]heptan-1-ylmethyl}-8-oxa-3,5,10-triazatricyclo[7.4.0.0^2,7]trideca-1(13),2(7),3,5,9,11-hexaene] | * (* = ≥10× ≥ 50×) | ** (** = >50×) | ** (** = >50×) | ** (** = >50×) |  |  | 26 |  |  | 30 |
